Measured values: patent US4061607A, “Somatostatin analogs and intermediates thereto” (Eli Lilly and Company, priority 1976, dated 1977)
Positions of bridges follow the written chain, without caps; N, C: chain ends. Non-standard residues stand in square brackets, D forms with d. Residues, ends and D or L forms follow the SMILES beside them. Cha = N[C@@H](CC1CCCCC1)C(=O)O

How the values were obtained:
[1] = tested on: release of growth hormone; assay: release of growth hormone in pentobarbital-stimulated rats; type: in vivo, Spraque-Dawley rats; conditions: 50 μg./rat subcutaneously, sodium pentobarbital stimulated, somatostatin comparator run in each set
Procedure: D-Phe^11 -somatostatin, L-Cha^11 -somatostatin, and L-Leu^11 -somatostatin also were tested for their activity with respect to the release of growth hormone. The procedure which was employed is carried out using mature male Spraque-Dawley rats (Laboratory Supply Company, Indianapolis, Indiana). The test is a modification of the method of P. Brazeau, W. Vale, and R. Guilleman, Endocrinology, 94 184 (1974). In each assay, a set comprising three groups of eight rats each was employed. First, sodium pentobarbital was administered to all of the rats of the particular set to stimulate growth hormone secretion. In each set, one group served as control group and received only saline. A second group received somatostatin at 50 μg./rat, subcutaneously. The third group received test compound at 50 μg./rat, subcutaneously. The degree of inhibition of serum growth hormone concentration then was determined with respect to the control group, and the relative activities of test compound and somatostatin itself were compared.

glucagon secretion [2] = assay: in vivo inhibition of glucagon secretion upon stimulation with L-alanine; design: species or system mongrel dogs; conditions: dogs, intravenous infusion; for effect on the increase in serum glucagon concentration produced by infusion of L-alanine: D-Phe11 0.211, L-Cha11 0.235, L-Leu11 0.195 μg/kg/min., L-alanine 1 mmol/kg; for effect on basal serum glucagon concentration: L-Cha11 0.235, L-Leu11 0.195 μg/kg/min.
Procedure: (§1) The tetradecapeptides were tested for their in vivo activity in inhibiting glucagon and insulin secretion upon stimulation with L-alanine. Normal mongrel dogs of either sex were fasted overnight. Control blood samples were obtained, and then an intravenous infusion of saline, somatostatin, or test compound was started. After 30 minutes, L-alanine additionally was administered intravenously for a period of 15 minutes. The infusion of saline, somatostatin, or test compound was continued for 15 minutes after completion of the alanine infusion. The total dose of somatostatin or test compound which was infused is 200-500 μg/dog (about 0.20-0.30 μg/kg./minute), and the total dose of L-alanine infused was 1 mmol/kg. The infusion of L-alanine produced an abrupt increase in the serum concentration of glucagon and insulin. This returned to control concentration when the alanine infusion was discontinued.

insulin secretion = assay: in vivo inhibition of insulin secretion upon stimulation with L-alanine; design: species or system mongrel dogs; conditions: for effect on the increase in serum insulin concentration produced by infusion of L-alanine / effect on basal serum insulin concentration: dogs, intravenous infusion; for effect on the increase in serum insulin concentration produced by infusion of L-alanine: D-Phe11 0.211, L-Cha11 0.235, L-Leu11 0.195 μg/kg/min., L-alanine 1 mmol/kg; for effect on basal serum insulin concentration: L-Cha11 0.235, L-Leu11 0.195 μg/kg/min., somatostatin about 0.20-0.30 μg/kg./minute
Procedure: as §1

glucagon secretion [3] = assay: in vivo inhibition of glucagon secretion upon stimulation with insulin; design: species or system mongrel dogs; conditions: dogs, intravenous infusion for two hours; D-Phe11 0.128, L-Cha11 0.130, L-Leu11 0.129 μg/kg/min.; insulin 0.3 units/kg.
Procedure: The tetradecapeptides also were evaluated for in vivo activity in inhibiting glucagon secretion upon stimulation with insulin. Normal mongrel dogs of either sex were fasted overnight. After control blood samples had been obtained, an intravenous infusion of saline, somatostatin, or the test compound was commenced. After 15 minutes, insulin, 0.3 units/kg., was injected intravenously. The infusion of saline, somatostatin, or the test compound was continued for two hours, and blood samples were obtained at various intervals throughout the test. The total dose of the somatostatin or test compound ranged from 120-260 μg./dog (0.07-0.13 μg/kg/min.). Administration of insulin produced a reduction in the blood glucose concentration and an increase in serum glucagon concentration.

gastric HCl secretion = assay: in vivo inhibition of gastric acid secretion in dogs with chronic fistula and Heidenhain pouch; conditions: for effect equivalent to that dose of somatostatin: extrapolated against the dose-response curve of somatostatin, test compound 3 μg/kg-hr.; for activity relative to that of somatostatin: gastric acid secretion in dogs, relative potency expressed as percent activity
Procedure: D-Phe^11 -somatostatin and L-Cha^11 -somatostatin also were tested in dogs for their in vivo inhibition of gastric acid secretion. In six dogs with chronic fistula and Heidenhain pouch, gastric HCl secretion was induced by infusion of the C-terminal tetrapeptide of gastrin at 0.5 μg/kg-hr. One dog served as control, receiving only the tetrapeptide. Another dog received the tetrapeptide and somatostatin while the test compound was administered to the remaining dogs in place of somatostatin. After one hour of steady state secretion of HCl, somatostatin or the test compound was infused at 3 μg/kg-hr. for one hour. Collection of gastric acid samples was continued for an additional 1.5 hours at 15 minute intervals. The samples were titrated to pH 7 with an automatic titrator. The maximal inhibitory effect of the test compounds was extrapolated against the dose-response curve of somatostatin, and the relative potency of the analogs to that of somatostatin is expressed as percent activity. […] This effect is equivalent to that of 0.086 μg/kg-hr. of somatostatin. Its activity relative to that of somatostatin thus is 2.87%. […] This effect is equivalent to that of 0.0825 μg/kg-hr. of somatostatin. Its activity relative to that of somatostatin therefore is 2.7%.

SMILES | inhibition of the increase in serum growth hormone concentration over control [1] [%] | effect on the increase in serum glucagon concentration produced by infusion of L-alanine (glucagon secretion [2]) | effect on basal serum glucagon concentration (glucagon secretion [2]) | effect on the increase in serum insulin concentration produced by infusion of L-alanine (insulin secretion) | effect on basal serum insulin concentration (insulin secretion) | inhibitory effect upon the pancreatic secretion of insulin (insulin secretion; general statement) | effect on the increase in serum glucagon concentration produced by insulin administration (glucagon secretion [3]) | effect equivalent to that dose of somatostatin (gastric HCl secretion) [μg/kg-hr.] | activity relative to that of somatostatin (gastric HCl secretion) [%]
CC(C)C[C@@H]1NC(=O)[C@H]([C@@H](C)O)NC(=O)[C@H](CCCCN)NC(=O)[C@H](Cc2c[nH]c3ccccc23)NC(=O)[C@H](Cc2ccccc2)NC(=O)[C@H](Cc2ccccc2)NC(=O)[C@H](CC(N)=O)NC(=O)[C@H](CCCCN)NC(=O)[C@@H](NC(=O)CNC(=O)[C@H](C)N)CSSC[C@@H](C(=O)O)NC(=O)[C@H](CO)NC(=O)[C@H]([C@@H](C)O)NC1=O [L-Leu^11 -somatostatin] (H-AGCKNFFWKTLTSC-OH; disulfide 3-14) | 22 | had no effect on the increase in glucagon concentration produced by L-alanine | had no affect on the basal serum concentration of either insulin or glucagon | caused only a partial inhibition of the increase in insulin secretion | had no affect on the basal serum concentration of either insulin or glucagon | exhibits an inhibitory effect upon the pancreatic secretion of insulin | none of these compounds inhibited the increase in serum glucagon concentration | – | –
C[C@H](N)C(=O)NCC(=O)N[C@H]1CSSC[C@@H](C(=O)O)NC(=O)[C@H](CO)NC(=O)[C@H]([C@@H](C)O)NC(=O)[C@@H](Cc2ccccc2)NC(=O)[C@H]([C@@H](C)O)NC(=O)[C@H](CCCCN)NC(=O)[C@H](Cc2c[nH]c3ccccc23)NC(=O)[C@H](Cc2ccccc2)NC(=O)[C@H](Cc2ccccc2)NC(=O)[C@H](CC(N)=O)NC(=O)[C@H](CCCCN)NC1=O [D-Phe^11 -somatostatin] | 70 | did not affect the increase in serum glucagon concentration | – | did not affect the increase in serum glucagon concentration and serum insulin concentration | – | – | none of these compounds inhibited the increase in serum glucagon concentration | 0.086 | 2.87
C[C@H](N)C(=O)NCC(=O)N[C@H]1CSSC[C@@H](C(=O)O)NC(=O)[C@H](CO)NC(=O)[C@H]([C@@H](C)O)NC(=O)[C@H](CC2CCCCC2)NC(=O)[C@H]([C@@H](C)O)NC(=O)[C@H](CCCCN)NC(=O)[C@H](Cc2c[nH]c3ccccc23)NC(=O)[C@H](Cc2ccccc2)NC(=O)[C@H](Cc2ccccc2)NC(=O)[C@H](CC(N)=O)NC(=O)[C@H](CCCCN)NC1=O [L-Cha^11 -somatostatin] (H-AGCKNFFWKT[Cha]TSC-OH; disulfide 3-14) | 33 | did not inhibit the increase in serum concentration of either hormone | caused a decrease in the basal serum concentration of both insulin and glucagon | did not inhibit the increase in serum concentration of either hormone | caused a decrease in the basal serum concentration of both insulin and glucagon | – | none of these compounds inhibited the increase in serum glucagon concentration | 0.0825 | 2.7
